Source: US11000033B2, “Ketone or oxime compound, and herbicide” (NISSAN CHEMICAL CORPORATION, priority 2014, dated 2021)

Legend:
Assay type in all cases: in vivo
[1] = tested on: directly sowed rice plant; test: Test Example 3: effect on crop by foliage application, Wagner pot (symbol b); conditions: application herbicide amount 320 g/ha
Method in brief: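 Alluvial soil in a 1/10000-are Wagner pot was flooded to a water depth of 0.1–0.5 cm. Echinochloa crus-galli var. crus-galli, Leptochloa chinensis, Cyperus difformis and rice were sown into it and grown in a greenhouse at 25–30 °C.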

Avena fatua = test: Test Example 5: herbicidal effect by foliage application, plastic box (symbol I); conditions: 320 g/ha, 3 weeks after application
Method in brief: (§1)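 Seeds were sown in sterilized diluvial soil, covered with about 1.5 cm of soil and grown 14 days in a greenhouse at 25° C. to 30° C. An emulsifiable formulation diluted in water to a set rate was sprayed over foliage, and injury was scored 3 weeks later.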

Stellaria media [2] = test: Test Example 5: herbicidal effect by foliage application, plastic box (symbol P); conditions: 320 g/ha, 3 weeks after application
Method in brief: as §1

Abutilon theophrasti = test: Test Example 4: herbicidal effect by soil treatment (symbol M); conditions: 320 g/ha
Method in brief: (§2)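 Seeds were sown in sterilized diluvial soil, covered with about 1.5 cm of soil, and the soil surface was sprayed with a water-diluted emulsion of the compound at a predetermined rate. Plants grew in a greenhouse at 25° C. to 30° C.; effects were scored visually 3 weeks after application.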

[3] = tested on: Echinochloa oryzacola Vasing.; test: Test Example 2: herbicidal activity, application during weed generation in submerged conditions (symbol A); conditions: Table 23; application herbicide amount 320 g/ha; grade 0-5 by criteria of Test Example 1
Method in brief: (§3)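 Paddy pot test, submerged (4 cm water), alluvial soil, mixed sowing; greenhouse 25–30° C. Emulsion formulation diluted to predetermined rate, applied onto floodwater at 1–2 leaf stage. Visual herbicidal rating at 3 wk post-treatment.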

Monochoria vaginalis = test: Test Example 2: herbicidal activity, application during weed generation in submerged conditions (symbol C); conditions: Table 23; application herbicide amount 320 g/ha; grade 0-5 by criteria of Test Example 1
Method in brief: as §3

Digitaria ciliaris = test: Test Example 5: herbicidal effect by foliage application, plastic box (symbol F); conditions: 320 g/ha, 3 weeks after application
Method in brief: as §1

rice plant = test: Test Example 5: effect on crop by foliage application, plastic box (symbol b); conditions: 320 g/ha, 3 weeks after application
Method in brief: (§4)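 Sterilized diluvial soil, plastic box (21 × 13 × 7 cm); spot sowing, ~1.5 cm soil cover; greenhouse 25–30° C.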

rapeseed = test: Test Example 5: effect on crop by foliage application, plastic box (symbol g); conditions: 320 g/ha, 3 weeks after application
Method in brief: as §4

Stellaria media [4] = test: Test Example 4: herbicidal effect by soil treatment (symbol P); conditions: 320 g/ha
Method in brief: as §2

[5] = tested on: Echinochloa crus-galli var. crus-galli; test: Test Example 4: herbicidal effect by soil treatment (symbol H); conditions: 320 g/ha
Method in brief: as §2

[6] = tested on: Echinochloa oryzacola Vasing.; test: Test Example 1: herbicidal activity, application before weed generation in submerged conditions (symbol A); conditions: application herbicide amount 320 g/ha
Method in brief: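 Weeds are sown into submerged alluvial soil alongside transplanted 2.5-leaf rice, and the compound, as an emulsion diluted to a set rate, is applied onto the water before emergence. Rating on the 0–5 herbicidal-ratio scale follows 3 weeks of greenhouse growth at 25–30 °C.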

Apera spica-venti = test: Test Example 5: herbicidal effect by foliage application, plastic box (symbol L); conditions: 320 g/ha, 3 weeks after application
Method in brief: as §1

Cyperus difformis = test: Test Example 3: herbicidal effect by foliage application, Wagner pot (symbol E); conditions: application herbicide amount 320 g/ha
Method in brief: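 Foliar spray of water-diluted emulsion formulation at a predetermined herbicide amount onto 14-day-old plants in flooded alluvial soil (water depth 0.1–0.5 cm), greenhouse 25–30 °C; rice sown alongside. Scored 3 wk post-application on set criteria.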

Structure (SMILES)	effect on crop b (directly sowed rice plant), grade 0-5 [1]	I: Avena fatua, herbicidal effect (criteria 0-5) (Avena fatua)	P: Stellaria media, herbicidal effect (criteria 0-5) (Stellaria media [2])	M: Abutilon theophrasti, herbicidal effect grade (Abutilon theophrasti)	Herbicidal effect grade, A: Echinochloa oryzacola Vasing. [3]	Herbicidal effect grade, C: Monochoria vaginalis (Monochoria vaginalis)	F: Digitaria ciliaris, herbicidal effect (criteria 0-5) (Digitaria ciliaris)	b: directly sowed rice plant, effect on crop (criteria 0-5) (rice plant)	g: rapeseed, effect on crop (criteria 0-5) (rapeseed)	P: Stellaria media, herbicidal effect grade (Stellaria media [4])	H: Echinochloa crus-galli var. crus-galli, herbicidal effect grade [5]	Herbicidal effect grade, A: Echinochloa oryzacola Vasing. [6]	L: Apera spica-venti, herbicidal effect (criteria 0-5) (Apera spica-venti)	I: Avena fatua, herbicidal effect grade (Avena fatua)	P: Stellaria media, herbicidal effect grade (Stellaria media [2])	herbicidal effect on E, grade 0-5 (Cyperus difformis)	F: Digitaria ciliaris, herbicidal effect grade (Digitaria ciliaris)	b: directly sowed rice plant, effect on crop grade (rice plant)	g: rapeseed, effect on crop grade (rapeseed)	L: Apera spica-venti, herbicidal effect grade (Apera spica-venti)
CON=C(C)CC1CC(OC(=O)N2CCCCC2)=C(c2c(C)cc(C)cc2C)C1=O (stereo not shown) [1-151]	5 (Herbicidal ratio of 90% or more (almost completely withered))	5 (Herbicidal ratio of 90% or more (almost completely withered))	0 (Herbicidal ratio of 5% or lower (almost no effect))	0 (Herbicidal ratio of 5% or lower (almost no effect))	5 (Herbicidal ratio of 90% or more (almost completely withered))	2 (Herbicidal ratio of 20% or higher and lower than 40%)	5 (Herbicidal ratio of 90% or more (almost completely withered))	4 (Herbicidal ratio of 70% or higher and lower than 90%)	4 (Herbicidal ratio of 70% or higher and lower than 90%)	0 (Herbicidal ratio of 5% or lower (almost no effect))	0 (Herbicidal ratio of 5% or lower (almost no effect))	5 (Herbicidal ratio of 90% or more (almost completely withered))	5 (Herbicidal ratio of 90% or more (almost completely withered))	–	–	–	–	–	–	–
CON=C(C)CC1CC(OS(=O)(=O)CC[Si](C)(C)C)=C(c2c(C)cc(C)cc2C)C1=O (stereo not shown) [1-144]	5 (Herbicidal ratio of 90% or more (almost completely withered))	5 (Herbicidal ratio of 90% or more (almost completely withered))	2 (Herbicidal ratio of 20% or higher and lower than 40%)	0 (Herbicidal ratio of 5% or lower (almost no effect))	5 (Herbicidal ratio of 90% or more (almost completely withered))	2 (Herbicidal ratio of 20% or higher and lower than 40%)	5 (Herbicidal ratio of 90% or more (almost completely withered))	5 (Herbicidal ratio of 90% or more (almost completely withered))	4 (Herbicidal ratio of 70% or higher and lower than 90%)	0 (Herbicidal ratio of 5% or lower (almost no effect))	5 (Herbicidal ratio of 90% or more (almost completely withered))	5 (Herbicidal ratio of 90% or more (almost completely withered))	5 (Herbicidal ratio of 90% or more (almost completely withered))	–	–	–	–	–	–	–
CON=C(C)CC1CC(OC(=O)C(C)Oc2ccc(Oc3ccc(Cl)cc3Cl)cc2)=C(c2c(C)cc(C)cc2C)C1=O (stereo not shown) [1-163]	–	–	–	–	5 (Herbicidal ratio of 90% or more (almost completely withered))	3 (Herbicidal ratio of 40% or higher and lower than 70%)	–	–	–	0 (Herbicidal ratio of 5% or lower (almost no effect))	5 (Herbicidal ratio of 90% or more (almost completely withered))	5 (Herbicidal ratio of 90% or more (almost completely withered))	–	5 (Herbicidal ratio of 90% or more (almost completely withered))	3 (Herbicidal ratio of 40% or higher and lower than 70%)	5 (Herbicidal ratio of 90% or more (almost completely withered))	5 (Herbicidal ratio of 90% or more (almost completely withered))	5 (Herbicidal ratio of 90% or more (almost completely withered))	5 (Herbicidal ratio of 90% or more (almost completely withered))	5 (Herbicidal ratio of 90% or more (almost completely withered))
C=CCOC(=O)OC1=C(c2c(C)cc(C)cc2C)C(=O)C(CC(C)=NOC)C1 (stereo not shown) [1-146]	5 (Herbicidal ratio of 90% or more (almost completely withered))	5 (Herbicidal ratio of 90% or more (almost completely withered))	3 (Herbicidal ratio of 40% or higher and lower than 70%)	5 (Herbicidal ratio of 90% or more (almost completely withered))	5 (Herbicidal ratio of 90% or more (almost completely withered))	4 (Herbicidal ratio of 70% or higher and lower than 90%)	5 (Herbicidal ratio of 90% or more (almost completely withered))	5 (Herbicidal ratio of 90% or more (almost completely withered))	5 (Herbicidal ratio of 90% or more (almost completely withered))	1 (Herbicidal ratio of 5% or higher and lower than 20%)	5 (Herbicidal ratio of 90% or more (almost completely withered))	5 (Herbicidal ratio of 90% or more (almost completely withered))	5 (Herbicidal ratio of 90% or more (almost completely withered))	–	–	–	–	–	–	–
CON=C(C)CC1CC(OC(=O)N2CCCC2)=C(c2c(C)cc(C)cc2C)C1=O (stereo not shown) [1-150]	5 (Herbicidal ratio of 90% or more (almost completely withered))	5 (Herbicidal ratio of 90% or more (almost completely withered))	0 (Herbicidal ratio of 5% or lower (almost no effect))	–	5 (Herbicidal ratio of 90% or more (almost completely withered))	1 (Herbicidal ratio of 5% or higher and lower than 20%)	5 (Herbicidal ratio of 90% or more (almost completely withered))	5 (Herbicidal ratio of 90% or more (almost completely withered))	4 (Herbicidal ratio of 70% or higher and lower than 90%)	0 (Herbicidal ratio of 5% or lower (almost no effect))	0 (Herbicidal ratio of 5% or lower (almost no effect))	5 (Herbicidal ratio of 90% or more (almost completely withered))	5 (Herbicidal ratio of 90% or more (almost completely withered))	–	–	–	–	–	–	–
COCCOC(=O)OC1=C(c2c(C)cc(C)cc2C)C(=O)C(CC(C)=NOC)C1 (stereo not shown) [1-147]	5 (Herbicidal ratio of 90% or more (almost completely withered))	5 (Herbicidal ratio of 90% or more (almost completely withered))	3 (Herbicidal ratio of 40% or higher and lower than 70%)	5 (Herbicidal ratio of 90% or more (almost completely withered))	5 (Herbicidal ratio of 90% or more (almost completely withered))	3 (Herbicidal ratio of 40% or higher and lower than 70%)	5 (Herbicidal ratio of 90% or more (almost completely withered))	5 (Herbicidal ratio of 90% or more (almost completely withered))	4 (Herbicidal ratio of 70% or higher and lower than 90%)	2 (Herbicidal ratio of 20% or higher and lower than 40%)	5 (Herbicidal ratio of 90% or more (almost completely withered))	5 (Herbicidal ratio of 90% or more (almost completely withered))	5 (Herbicidal ratio of 90% or more (almost completely withered))	–	–	–	–	–	–	–
